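Assay format: 96-well plates, 48-hour exposure. Definition used: TGI = concentration required for complete inhibition of growth.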
Columns and labels:
Experiment in all cases: inhibition of tumour cell growth, NCI panel, 48 h
[1] = test system: NCI-H23 lung
[2] = test system: OVCAR-3 ovarian
[3] = test system: SF-539 CNS
[4] = test system: NCI-H460 lung
[5] = test system: A498 renal
[6] = test system: UACC-62 melanoma
[7] = test system: HS 578T breast
[8] = test system: HT29 colon
[9] = test system: CAKI-1 renal
[10] = test system: PC-3 prostate
[11] = test system: CCRF-CEM leukemia
[12] = test system: BT-549 breast
[13] = test system: HCT-116 colon
[14] = test system: MDA-MB-231 breast
[15] = test system: COLO 205 colon
[16] = test system: DU-145 prostate
[17] = test system: MOLT-4 leukemia
[18] = test system: MCF7 breast
[19] = test system: SK-MEL-5 melanoma
[20] = test system: SNB-75 CNS
[21] = test system: SR leukemia
[22] = test system: HCC-2998 colon
[23] = test system: SN12C renal
[24] = test system: UO-31 renal
[25] = test system: KM12 colon
[26] = test system: NCI-H226 lung
[27] = test system: OVCAR-4 ovarian
[28] = test system: HL-60(TB) leukemia
[29] = test system: SW-620 colon
[30] = test system: SF-295 CNS
[31] = test system: K-562 leukemia
[32] = test system: U251 CNS
[33] = test system: OVCAR-5 ovarian
[34] = test system: SNB-19 CNS
[35] = test system: UACC-257 melanoma
[36] = test system: OVCAR-8 ovarian
[37] = test system: SK-MEL-28 melanoma
[38] = test system: RXF 393 renal
[39] = test system: SK-OV-3 ovarian
[40] = test system: SK-MEL-2 melanoma
[41] = test system: 786-0 renal
[42] = test system: MALME-3M melanoma
[43] = test system: SF-268 CNS
[44] = test system: TK-10 renal
[45] = test system: NCI-H522 lung
[46] = test system: HCT-15 colon
[47] = test system: EKVX NSCLC
[48] = test system: HOP-62 NSCLC
[49] = test system: MDA-MB-435
[50] = test system: ACHN renal
[51] = test system: A549 NSCLC
[52] = test system: T-47D breast
[53] = test system: NCI/ADR-RES ovarian
[54] = test system: M14 melanoma
[55] = test system: HOP-92 NSCLC
[56] = test system: MDA-N
[57] = test system: IGROV1 ovarian
[58] = test system: RPMI-8226 leukemia
[59] = test system: LOX IMVI melanoma

Cc1ccc(N=Nc2c(O)ccc3cc(S(=O)(=O)O)ccc23)c(C)c1
TGI [1]: > 100 µM | TGI [2]: > 100 µM | TGI [3]: > 100 µM | TGI [4]: > 100 µM | TGI [5]: > 100 µM | TGI [6]: > 100 µM | TGI [7]: > 100 µM | TGI [8]: > 100 µM | TGI [9]: > 100 µM | TGI [10]: > 100 µM | TGI [11]: > 100 µM | TGI [12]: > 100 µM | TGI [13]: > 100 µM | TGI [14]: > 100 µM | TGI [15]: > 100 µM | TGI [16]: > 100 µM | TGI [17]: > 100 µM | TGI [18]: > 100 µM | TGI [19]: > 100 µM | TGI [20]: > 100 µM | TGI [21]: > 100 µM | TGI [22]: > 100 µM | TGI [23]: > 100 µM | TGI [24]: > 100 µM | TGI [25]: > 100 µM | TGI [26]: > 100 µM | TGI [27]: > 100 µM | TGI [28]: > 100 µM | TGI [29]: > 100 µM | TGI [30]: > 100 µM | TGI [31]: > 100 µM | TGI [32]: > 100 µM | TGI [33]: > 100 µM | TGI [34]: > 100 µM | TGI [35]: > 100 µM | TGI [36]: > 100 µM | TGI [37]: > 100 µM | TGI [38]: > 100 µM | TGI [39]: > 100 µM | TGI [40]: > 100 µM | TGI [41]: > 100 µM | TGI [42]: > 100 µM | TGI [43]: > 100 µM | TGI [44]: > 100 µM | TGI [45]: > 100 µM | TGI [46]: > 100 µM | TGI [47]: > 100 µM | TGI [48]: > 100 µM | TGI [49]: > 100 µM | TGI [50]: > 100 µM | TGI [51]: > 100 µM | TGI [52]: > 100 µM | TGI [53]: > 100 µM | TGI [54]: > 100 µM | TGI [55]: > 100 µM | TGI [56]: > 100 µM | TGI [57]: > 100 µM

CC(C(=O)ON1C(=O)CCC1=O)c1ccc(C(=O)c2ccccc2)s1 (centres undefined)
TGI [1]: > 100 µM | TGI [2]: > 100 µM | TGI [4]: > 100 µM | TGI [5]: > 100 µM | TGI [6]: > 100 µM | TGI [7]: > 100 µM | TGI [8]: > 100 µM | TGI [9]: > 100 µM | TGI [10]: > 100 µM | TGI [11]: > 100 µM | TGI [12]: > 100 µM | TGI [13]: > 100 µM | TGI [14]: > 100 µM | TGI [15]: > 100 µM | TGI [16]: > 100 µM | TGI [17]: > 100 µM | TGI [18]: > 100 µM | TGI [19]: > 100 µM | TGI [20]: > 100 µM | TGI [21]: > 100 µM | TGI [22]: > 100 µM | TGI [23]: > 100 µM | TGI [24]: > 100 µM | TGI [25]: > 100 µM | TGI [26]: > 100 µM | TGI [27]: > 100 µM | TGI [29]: > 100 µM | TGI [30]: > 100 µM | TGI [31]: > 100 µM | TGI [32]: > 100 µM | TGI [33]: > 100 µM | TGI [34]: > 100 µM | TGI [35]: > 100 µM | TGI [36]: > 100 µM | TGI [37]: > 100 µM | TGI [38]: > 100 µM | TGI [39]: > 100 µM | TGI [40]: > 100 µM | TGI [41]: > 100 µM | TGI [42]: > 100 µM | TGI [58]: > 100 µM | TGI [43]: > 100 µM | TGI [44]: > 100 µM | TGI [45]: > 100 µM | TGI [46]: > 100 µM | TGI [59]: > 100 µM | TGI [47]: > 100 µM | TGI [48]: > 100 µM | TGI [49]: > 100 µM | TGI [50]: > 100 µM | TGI [51]: > 100 µM | TGI [52]: > 100 µM | TGI [53]: > 100 µM | TGI [54]: > 100 µM | TGI [55]: > 100 µM | TGI [56]: > 100 µM | TGI [57]: > 100 µM

CN(C)c1ccc(/C=C2\N=C(NN)NC2=O)cc1
TGI [1]: > 100 µM | TGI [2]: > 100 µM | TGI [3]: 96.6 µM | TGI [4]: > 100 µM | TGI [5]: > 100 µM | TGI [6]: > 100 µM | TGI [7]: > 100 µM | TGI [8]: 98.9 µM | TGI [9]: > 100 µM | TGI [10]: > 100 µM | TGI [11]: > 100 µM | TGI [12]: > 100 µM | TGI [13]: > 100 µM | TGI [14]: > 100 µM | TGI [15]: > 100 µM | TGI [16]: > 100 µM | TGI [17]: > 100 µM | TGI [18]: > 100 µM | TGI [20]: > 100 µM | TGI [21]: > 100 µM | TGI [22]: > 100 µM | TGI [23]: > 100 µM | TGI [24]: > 100 µM | TGI [25]: > 100 µM | TGI [26]: > 100 µM | TGI [27]: > 100 µM | TGI [28]: > 100 µM | TGI [29]: > 100 µM | TGI [30]: > 100 µM | TGI [31]: > 100 µM | TGI [32]: > 100 µM | TGI [33]: > 100 µM | TGI [34]: > 100 µM | TGI [35]: > 100 µM | TGI [36]: > 100 µM | TGI [37]: > 100 µM | TGI [38]: > 100 µM | TGI [39]: > 100 µM | TGI [40]: > 100 µM | TGI [41]: > 100 µM | TGI [42]: > 100 µM | TGI [58]: > 100 µM | TGI [43]: > 100 µM | TGI [44]: > 100 µM | TGI [45]: > 100 µM | TGI [46]: > 100 µM | TGI [59]: > 100 µM | TGI [47]: > 100 µM | TGI [48]: > 100 µM | TGI [49]: > 100 µM | TGI [50]: > 100 µM | TGI [51]: > 100 µM | TGI [52]: > 100 µM | TGI [53]: > 100 µM | TGI [54]: > 100 µM | TGI [55]: > 100 µM | TGI [56]: > 100 µM | TGI [57]: > 100 µM

CN(C)c1nc(NC23CC4CC(CC(C4)C2)C3)nc(N(C)C)n1
TGI [1]: > 100 µM | TGI [2]: > 76.2 µM | TGI [3]: > 79.6 µM | TGI [4]: > 100 µM | TGI [5]: > 100 µM | TGI [6]: > 76.1 µM | TGI [7]: 56 µM | TGI [8]: > 100 µM | TGI [9]: > 100 µM | TGI [10]: > 42.2 µM | TGI [11]: 28.7 µM | TGI [12]: > 100 µM | TGI [13]: > 57.1 µM | TGI [14]: > 57 µM | TGI [15]: > 49.6 µM | TGI [16]: > 100 µM | TGI [17]: > 57.3 µM | TGI [18]: > 63.3 µM | TGI [19]: 24.8 µM | TGI [20]: > 55.2 µM | TGI [21]: 53.9 µM | TGI [22]: 97.1 µM | TGI [23]: > 85.4 µM | TGI [24]: > 77.2 µM | TGI [25]: > 100 µM | TGI [26]: > 77.6 µM | TGI [27]: > 100 µM | TGI [28]: 13.5 µM | TGI [29]: > 56.2 µM | TGI [30]: > 33.3 µM | TGI [31]: 7.84 µM | TGI [32]: > 55.3 µM | TGI [33]: > 100 µM | TGI [34]: > 40.1 µM | TGI [35]: > 100 µM | TGI [36]: > 100 µM | TGI [37]: > 69.9 µM | TGI [38]: 17.7 µM | TGI [39]: > 100 µM | TGI [40]: 63.1 µM | TGI [41]: > 89.5 µM | TGI [42]: > 71.5 µM | TGI [58]: 12.7 µM | TGI [43]: > 100 µM | TGI [44]: > 100 µM | TGI [46]: 41.2 µM | TGI [59]: 17.8 µM | TGI [47]: > 100 µM | TGI [48]: > 90.4 µM | TGI [49]: > 100 µM | TGI [50]: > 100 µM | TGI [51]: > 39.4 µM | TGI [52]: 49.6 µM | TGI [53]: > 100 µM | TGI [54]: > 57.9 µM | TGI [55]: 82.2 µM | TGI [56]: > 45.9 µM

Source: PubChem BioAssay (NCI)
